PubChem BioAssay AID1963984 (Molecular Pharmacology Branch, DTP, NCI, 2024)

Tested on: 233499-124-R-J3-PDC spheroids with HUVEC/MSC, viability
Experiment: Anticancer human tumor 233499-124-R-J3-PDC patient-derived colon adenocarcinoma cell line growth inhibition [PI3K]
Conditions: for IC50: curve of first compound; for viability, T/C: stronger effect = lower value
Procedure, shortened: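 Combination activity was assessed by viability in multicellular tumor spheroids carrying HUVEC and MSC components. Agents were tested with PI3K inhibitors from a Cmax-based top dose (or 10 microM) downward in half-log increments.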

[1] = second compound 0.0316 µM, first compound 0.0316 µM
[2] = second compound 0.0316 µM, first compound 0.1 µM
[3] = second compound 0.0316 µM, first compound 0.316 µM
[4] = second compound 0.0316 µM, first compound 1 µM
[5] = second compound 0.1 µM, first compound 0.0316 µM
[6] = second compound 0.1 µM, first compound 0.1 µM
[7] = second compound 0.1 µM, first compound 0.316 µM
[8] = second compound 0.1 µM, first compound 1 µM
[9] = second compound 0.316 µM, first compound 0.0316 µM
[10] = second compound 0.316 µM, first compound 0.1 µM
[11] = second compound 0.316 µM, first compound 0.316 µM
[12] = second compound 0.316 µM, first compound 1 µM
[13] = second compound 1 µM, first compound 0.0316 µM
[14] = second compound 1 µM, first compound 0.1 µM
[15] = second compound 1 µM, first compound 0.316 µM
[16] = second compound 1 µM, first compound 1 µM
[17] = second compound 3.16 µM, first compound 0.0316 µM
[18] = second compound 3.16 µM, first compound 0.1 µM
[19] = second compound 3.16 µM, first compound 0.316 µM
[20] = second compound 3.16 µM, first compound 1 µM
[21] = second compound 10 µM, first compound 0.0316 µM
[22] = second compound 10 µM, first compound 0.1 µM
[23] = second compound 10 µM, first compound 0.316 µM
[24] = second compound 10 µM, first compound 1 µM
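Further: spheroids exposed to agents for seven days before readout.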
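Wherever viability, T/C is given: percent viability relative to DMSO vehicle control taken as 100%.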

Work on `CC(C)NCC(C(=O)N1CCN(c2ncnc3c2C(C)CC3O)CC1)c1ccc(Cl)cc1` (centres undefined) + Cc1nc(NC(=O)N2CCCC2C(N)=O)sc1-c1ccnc(C(C)(C)C(F)(F)F)c1 yielded an IC50 (second compound 0.0316 µM) of over 10000 nM, an IC50 (second compound 0.1 µM) of over 10000 nM and an IC50 (second compound 0.316 µM) of over 10000 nM. The IC50 (second compound 1 µM) was over 10000 nM, the IC50 (second compound 3.16 µM) was 1190 nM and the IC50 (second compound 10 µM) was under 31.6 nM. It also gave a viability, T/C [1] of 95.8%, a viability, T/C [2] of 104% and a viability, T/C [3] of 94.6%. The viability, T/C [4] was 86.5%, the viability, T/C (second compound 0.0316 µM, first compound 3.16 µM) was 94.3% and the viability, T/C (second compound 0.0316 µM, first compound 10 µM) was 56.5%. It also gave a viability, T/C [5] of 91.3%, a viability, T/C [6] of 94.7% and a viability, T/C [7] of 96.4%. The viability, T/C [8] was 83.2%, the viability, T/C (second compound 0.1 µM, first compound 3.16 µM) was 91.6% and the viability, T/C (second compound 0.1 µM, first compound 10 µM) was 51.4%. The viability, T/C [9] was 87.3%, the viability, T/C [10] was 82.3% and the viability, T/C [11] was 80.7%. It also gave a viability, T/C [12] of 76.6%, a viability, T/C (second compound 0.316 µM, first compound 3.16 µM) of 74.1% and a viability, T/C (second compound 0.316 µM, first compound 10 µM) of 72.8%. The viability, T/C [13] was 84.5%, the viability, T/C [14] was 75% and the viability, T/C [15] was 60.7%. For the same compound, the viability, T/C [16] was 71.7%, the viability, T/C (second compound 1 µM, first compound 3.16 µM) was 73.4% and the viability, T/C (second compound 1 µM, first compound 10 µM) was 62.1%. For the same compound, the viability, T/C [17] was 63.1%, the viability, T/C [18] was 29.6% and the viability, T/C [19] was 69.9%. It also gave a viability, T/C [20] of 59%, a viability, T/C (second compound 3.16 µM, first compound 3.16 µM) of 33.6% and a viability, T/C (second compound 3.16 µM, first compound 10 µM) of 43%. For the same compound, the viability, T/C [21] was 22.1%, the viability, T/C [22] was 19.2% and the viability, T/C [23] was 28.3%. It also gave a viability, T/C [24] of 22.6%, a viability, T/C (second compound 10 µM, first compound 3.16 µM) of 31.3% and a viability, T/C (second compound 10 µM, first compound 10 µM) of 23.9%.
Compound `CCN1CCN(Cc2ccc(Nc3ncc(F)c(-c4cc(F)c5nc(C)n(C(C)C)c5c4)n3)nc2)CC1` + Cc1nc(NC(=O)N2CCCC2C(N)=O)sc1-c1ccnc(C(C)(C)C(F)(F)F)c1 has an IC50 (second compound 0.0316 µM) of 547 nM, an IC50 (second compound 0.1 µM) of 658 nM and an IC50 (second compound 0.316 µM) of 164 nM. The IC50 (second compound 1 µM) was 36 nM, the IC50 (second compound 3.16 µM) was 7.26 nM and the IC50 (second compound 10 µM) was under 3.16 nM. The viability, T/C (second compound 0.0316 µM, first compound 0.00316 µM) was 67.3%, the viability, T/C (second compound 0.0316 µM, first compound 0.01 µM) was 90.7% and the viability, T/C [1] was 74%. It also gave a viability, T/C [2] of 79.7%, a viability, T/C [3] of 59.5% and a viability, T/C [4] of 39.6%. For the same compound, the viability, T/C (second compound 0.1 µM, first compound 0.00316 µM) was 72.5%, the viability, T/C (second compound 0.1 µM, first compound 0.01 µM) was 86.7% and the viability, T/C [5] was 67.5%. The viability, T/C [6] was 52.6%, the viability, T/C [7] was 66.6% and the viability, T/C [8] was 43.4%. For the same compound, the viability, T/C (second compound 0.316 µM, first compound 0.00316 µM) was 94.8%, the viability, T/C (second compound 0.316 µM, first compound 0.01 µM) was 79.2% and the viability, T/C [9] was 71.9%. It also gave a viability, T/C [10] of 47.6%, a viability, T/C [11] of 49.5% and a viability, T/C [12] of 30.7%. For the same compound, the viability, T/C (second compound 1 µM, first compound 0.00316 µM) was 52.5%, the viability, T/C (second compound 1 µM, first compound 0.01 µM) was 49.5% and the viability, T/C [13] was 49.7%. For the same compound, the viability, T/C [14] was 49.2%, the viability, T/C [15] was 38.4% and the viability, T/C [16] was 21.3%. For the same compound, the viability, T/C (second compound 3.16 µM, first compound 0.00316 µM) was 55.4%, the viability, T/C (second compound 3.16 µM, first compound 0.01 µM) was 49.1% and the viability, T/C [17] was 37.7%. It also gave a viability, T/C [18] of 36.6%, a viability, T/C [19] of 25% and a viability, T/C [20] of 24.4%. It also gave a viability, T/C (second compound 10 µM, first compound 0.00316 µM) of 28.1%, a viability, T/C (second compound 10 µM, first compound 0.01 µM) of 21.9% and a viability, T/C [21] of 27.6%. The viability, T/C [22] was 21.1%, the viability, T/C [23] was 21.3% and the viability, T/C [24] was 20.7%.
